From US20250352524A1, “PREVENTION OF METASTATIC OUTGROWTH USING TEAD INHIBITORS” (Georgetown University, priority 2024, published 2025)

Key:
4T1 cells = 4T1 cells injected into tail vein of BALB/c mice, lung metastasis and T-cell profiling; format: in vivo
Method: There was no difference in the primary tumor size between treatment groups nor the size of recurrent tumors at 6 weeks (FIG. 9, Panel B and FIG. 8, Panel C). […] To investigate tissue specific effects, gene expression changes between treatment groups in lung and tumor tissues were analyzed by RNA-sequencing. […] To reduce the impact of TEAD inhibition on cancer cell intrinsic function such as dissemination and invasion, 4T1, a triple negative mouse mammary carcinoma cell line (Pulaski & Ostrand-Rosenberg, 2000), was injected into the tail vein of BALB/c mice that directly seed into the lung tissue. A reduction in lung metastases, as well as the suppression of inflammatory pathways, were observed (FIG. 9, Panels E and F, and FIG. 8, Panel F).
To determine early changes in the T-cell population, lung and spleen tissues of BALB/c mice that were intravenously injected with 4T1 were processed and analyzed by flow cytometry 10 days post inoculation (FIG. 9, Panel E). […] M1-like macrophages and IL12 signaling play a critical role in the crosstalk between macrophages and T-cells triggering their proliferation and differentiation of T-cell subsets that can eliminate tumor cells unlike the pro-tumor M2-like macrophages (Guerriero, 2019; Oishi et al., 2016; Shao et al., 2023). Thus, the interplay between macrophage and T-cells after iTEAD treatment is likely to play a role in the increase in CD8+ T-cell and Th1 CD4+ cell populations in the lungs.
Formalin-fixed, paraffin embedded (FFPE) lung tissue sections were stained with hematoxylin and eosin. Immunohistochemistry staining was performed on FFPE tumor and lung tissue sections. Slides were deparaffinized in xylene and rehydrated following a series of ethanol washes. Heat-induced antigen retrieval was then performed by placing slides in warmed sodium citrate buffer (pH 6.0) (Invitrogen, 005000) in a pre-heated steamer for 20 minutes. Slides were cooled at room temperature for an additional 20 minutes, prior to quenching endogenous peroxidase activity using 3% hydrogen peroxide buffer (Fisher, BP2633500) for 10 minutes. Next, slides were incubated overnight at 4° C. with either anti-CD8 (Cell Signaling Technology, #98941), anti-CD68 (Abcam, ab303565), anti-CD206 (Cell Signaling Technology, #24595), or anti-F480 (Cell Signaling Technology, #70076). Following PBS washes, the slides are then stained with a biotinylated secondary antibody using the VECTASTAIN Elite ABC-HRP Kit according to the user's manual (Vector Laboratories, PK-6101). Positive brown staining was produced by applying ImmPACT DAB EqV Substrate Kit (Vector Laboratories, SK-4103) to the slides, which were then counterstained with hematoxylin (Sigma, MHS16). Images were captured using the Olympus BX40 microscope, and positive staining was quantified manually. Immunofluorescent staining was performed on lung tissue sections. Slides were baked at 60°, deparaffinized in xylene, rehydrated, washed in DI water and incubated with 10% neutral buffered formalin (NBF) for an additional 20 minutes to increase tissue-slide retention. Epitope retrieval/microwave treatment (MWT) for all antibodies was performed by boiling slides in Antigen Retrieval buffer 6 (AR6 pH6, Akoya AR6001KT). Protein blocking is performed using antibody diluent/blocking buffer (Akoya, ARD1001EA) for 10 minutes at room temperature. […] Slides were scanned at 10× magnification using the Vectra 3.0 Automated Quantitative Pathology Imaging System (PerkinElmer/Akoya). […]

[1] = test system: bone marrow-derived macrophages; assay: Cytokine array of conditioned media, bone marrow-derived macrophages; format: cell-based, mouse; conditions: 1 μM VT107 for 24 hours
Text: Due to the shifts in immune signaling observed in the lung tissue upon TEAD inhibition (FIG. 9), immune cell populations were first analyzed by flow cytometry in the lungs and spleens of tumor naïve mice. Consistent with the Cibersort analysis of RNA-seq data, there was a decrease in the monocytes population and an increase in the tissue-resident alveolar macrophages (AM) (FIG. 10, Panel A). […] Next, it was sought to determine the specific effects of iTEAD treatment on lung resident versus bone-marrow derived macrophages, as the dynamics of these cell populations are crucial for the establishment of the metastatic niche (Ries et al., 2014; Qian et al., 2011). Macrophages were retrieved from the lungs by isolating F4/80+ cells, a specific marker for murine macrophages, by FACS (fluorescence-activated cell sorting) as well as bone marrow-derived macrophages from the femurs of naïve C57BL/6 mice that were then differentiated in vitro using macrophage colony stimulating factor (M-CSF). Macrophages were treated with 1 μM of VT107 for 24 hours before the conditioned media was collected and analyzed on a cytokine array. […] There was no change in the level of the other cytokines detected (FIG. 10, Panel B). […]

For VT107, the “inflammatory pathways in lungs” value (4T1 cells; 30 mg/kg VT107 daily) was “suppression”, the lung metastases (4T1 cells; 30 mg/kg VT107 daily by oral gavage vs vehicle) was “reduction” and the “T-bet staining in the lungs” value (4T1 cells; IHC, week 2) was “significant increase”. For the same substance, the “overall abundance of CD4+ and CD8+ T-cell populations” value (4T1 cells; flow cytometry 10 days post inoculation) was “no difference”, the “helper 1 T-cell (Th1) population” value (4T1 cells; flow cytometry 10 days post inoculation, lung) was “increased” and the “secreted IL4 levels” value [1] was “reduced”. The “secreted IL12” value [1] was “no effect”.
